Data from paper PMC7401407, “Development of WEE2 kinase inhibitors as novel non-hormonal female contraceptives that target meiosis” (Biology of Reproduction, 2020).
“Also recorded” adds a separate entry of the source.

What was measured:
[1] = test system: T1, human WEE1 protein; test: ELISA of CDK1 phosphorylation (CycLex WEE1 Kinase Assay/Inhibitor Screening Kit), WEE1; format: biochemical; conditions: 1 μM inhibitor, 60 min at 30 °C
T1 construct: purchased MBL International CYE1172

[2] = test system: T2, recombinant WEE2 protein; test: ELISA of CDK1 phosphorylation (CycLex kit), WEE2; format: biochemical, human; conditions: 1 μM inhibitor, 60 min at 30 °C
T2 construct: made in house

[3] = test system: bovine oocytes; test: Bovine in vitro fertilization (exit from metaphase II arrest); format: cell-based
[4] = test system: HEK 293 cells; test: Somatic cell proliferation assay (dye dilution, flow cytometry); format: cell-based
Text: To determine off-target effects of inhibitors on somatic cell WEE1, a proliferation assay was used as previously reported [22]. […] Independent cell cultures were collected at 0-, 48-, 72-, and 96-h post loading with a membrane permeable fluorophore, cell trace violet dye (Cat# C34557; ThermoFisher, Waltham, MA), which diminishes in concentration within the cell after each progressive division. Duplicate samples were collected and fixed for analysis by flow cytometry.
To evaluate the biological off-target effect of candidate inhibitors on mitosis, we use somatic cell culture and flow cytometry to assess proliferation disruption. […] Prior to each culture experiment, we treat the cells with a membrane permeable fluorescent dye to track cellular division activity. As cells divide the dye becomes diluted and the fluorescent signal decreases. We use flow cytometry, with at least 20 000 events counted to measure fluorescence intensity to indicate changes in cell proliferation in the presence of inhibitors [38]. The more inhibitory a drug, the more dye will be retained in the cells and so comparison can be made to controls to determine the level of mitotic activity.

[5] = test system: MYT1 (PKMYT1); set-up: method as in PMID 28792760; conditions: direct binding studies; cited from earlier work

SMILES: C=CCn1c(=O)c2cnc(Nc3ccc(N4CCN(C)CC4)cc3)nc2n1-c1cccc(C(C)(C)O)n1 [MK-1775, Adavosertib]
- WEE1 phosphorylation activity of CDK1 [1]: significantly reduces; also recorded: significantly inhibits
- WEE2 phosphorylation activity of CDK1 [2]: significantly reduces; also recorded: significantly inhibits
- proportion of oocytes undergoing normal fertilization ([3]; 1 μM prior to and during IVF): reduction in the proportion of oocytes undergoing normal fertilization
- reduction of MII exit compared to DMSO ([3]; bovine oocytes co-cultured with inhibitor during IVF, N = 126): 16%
- somatic cell division activity (mitosis) ([4]; HEK 293, 0.01 μM): decrease in mitosis
- somatic cell division activity (mitosis) ([4]; HEK 293, 0.1 μM): decrease in mitosis
- somatic cell division activity (mitosis) ([4]; HEK 293, 1 μM): inhibited mitosis in somatic cell culture after 48 h; also recorded: arrested the cell culture
- activity against MYT1 relative to WEE1 and WEE2 [5]: significantly weaker activity
